Assay results taken from PubChem BioAssay AID1190 (EPA DSSTox, 2008).
Calls of active or inactive are those of the source. How the calls were made is not given here.

What follows are compounds tested on dog and primate chronic carcinogenicity bioassays, TD50 (assay: DSSTox (CPDBAS) Carcinogenic Potency Database Summary Dog & Primates Bioassay Results).
Excerpt: The Carcinogenic Potency Database (CPDB) is a unique and widely used international resource of the results of over 6500 chronic, long-term animal cancer tests on over 1500 chemical substances. The CPDB provides easy access to the bioassay literature, with qualitative and quantitative analyses of both positive and negative experiments that have been published over the past 50 years in the general literature and by the National Cancer Institute/National Toxicology Program. The CPDB standardizes the diverse literature of cancer bioassays that vary widely in protocol, histopathological examination and nomenclature, and in the published author's choices of what information to provide in their papers. Results are reported in the CPDB for tests in rats, mice, hamsters, dogs, and nonhuman primates, and are based on the most positive result among all experiments for each sex-species. The DSSTox CPDBAS (all species) file incorporates data from the CPDB Summary Tables for the full list of over 1500 chemical substances tested in at least one species. Summary bioassay results for Dogs and Non-Human Primates (TD50, tumor sites) are provided in the CPDB Summary Tables and the DSSTox CPDBAS file for more than 30 chemical substances.
TD50 is a standardized quantitative measure of carcinogenic potency (analogous to an LD50) and is reported in the CPDB Summary Table for each species. Comments pertaining to the Dog or Primates (Cynomolgus, Rhesus, Bush Baby, Tree Shrew) TD50 (corresponding to footnote indices in the original CPDB Summary Table) are provided in the TD50_Dog_Primates_Note field. […] Target sites are reported for each species with a positive result in the CPDB on the basis of a positive author's opinion for the particular site and using all results from both the general literature and NCI/NTP bioassays. If a chemical has two or more target sites listed, the results may be from different experiments, and a single site may be a target organ in more than one experiment, as well. Blank entry in TargetSites field indicates no results reported.

| SMILES | outcome | Potency [mg/kg/day] |
| --- | --- | --- |
| Clc1ccc(C(c2ccc(Cl)cc2)C(Cl)(Cl)Cl)cc1 | inactive; no positive results | – |
| CC(=O)Nc1ccc2c(c1)Cc1ccccc1-2 | inactive; no positive results | – |
| Nc1ccc2ccccc2c1 | – | 5.74 |
| Cn1cnc([N+](=O)[O-])c1Sc1ncnc2nc[nH]c12 | inactive; no positive results | – |
| COc1cc2c(c3oc4cccc(O)c4c(=O)c13)C1C=COC1O2 (stereo unspecified) | active | – |
| C#C[C@]1(OC(C)=O)CC[C@H]2[C@@H]3CCC4=CC(=O)CC[C@@H]4[C@H]3CC[C@@]21C | inactive; no positive results | – |
| O=P1(N(CCCl)CCCl)NCCCO1 (stereo unspecified) | inactive; no positive results | – |
| Cn1c(N)nc2c3cccnc3ccc21 | active | – |
| CC(=O)Nc1ccc2c(c1)Cc1cc(NC(C)=O)ccc1-2 | inactive; no positive results | – |
| Cc1cc(C)c(S(=O)(=O)O)cc1N=Nc1cc(S(=O)(=O)O)c2ccccc2c1O | inactive | – |
| CN(C)N=O | inactive; no positive results | – |
| C#C[C@@]1(O)CC[C@H]2[C@@H]3CCC4=CCCC[C@@H]4[C@H]3CC[C@@]21C | active | – |
| Nc1ccc(Cc2ccc(N)c(Cl)c2)cc1Cl | active | – |
| N[C@@H](Cc1ccc(N(CCCl)CCCl)cc1)C(=O)O | active; no positive results | – |
| Cc1cccc(N=Nc2ccc(N(C)C)cc2)c1 | inactive; no positive results | – |
| CCN(CC)N=O | – | 0.0536 |

| SMILES | outcome | Potency [mg/kg/day] |
| --- | --- | --- |
| ClC(Cl)Cl | inactive | – |
| O=C1NS(=O)(=O)c2ccccc21 | inactive; no positive results | – |
| COc1cccc2c1C(=O)c1c(O)c3c(c(O)c1C2=O)C[C@@](O)(C(=O)CO)C[C@@H]3O[C@H]1C[C@H](N)[C@H](O)[C@H](C)O1 | inactive; no positive results | – |
| O=NN1CCCCC1 | – | 2.76 |
| CNNCc1ccc(C(=O)NC(C)C)cc1 | – | 4.21 |
| O=S(=O)(O)NC1CCCCC1 | inactive; no positive results | – |
| COc1cc2c(c3oc(=O)c4c(c13)CCC4=O)C1C=COC1O2 (stereo unspecified) | – | 0.0082 |
| CN(N=O)C(N)=O | – | 7.18 |
| Cc1ccc2cc3c(ccc4ccccc43)c3c2c1CC3 | inactive; no positive results | – |
| Nc1ccc(-c2ccc(N)c(Cl)c2)cc1Cl | active | – |
| CN(C)c1ccc(N=Nc2ccccc2)cc1 | inactive; no positive results | – |
| CCOC(N)=O | – | 65.2 |
| O=[As](O)(O)O | inactive | – |
| CCCN(CCC)N=O | – | 0.0121 |
| C/[N+]([O-])=N/CO[C@@H]1O[C@H](CO)[C@@H](O)[C@H](O)[C@H]1O | – | 0.0657 |
